Read-outs that look alike come from different tables or passages of the source.

The IC50 is the concentration that inhibits the measured activity by half. A word on the Kd: it is the constant that tells how readily two partners part at equilibrium. As a reminder, the melting point is the temperature, or range, at which the solid turns liquid.

The test system of data set [1] is NF-κB/AP-1 transcriptional activity in THP-1Blue cells. Kind of data set: LPS-induced NF-κB/AP-1 alkaline phosphatase reporter assay in THP-1Blue cells. It is filed as cell-based. To be noted: Homo sapiens; LPS 250 ng/ml, 24 h. As to the method: (§1) All cells were cultured at 37°C in a humidified atmosphere containing 5% CO2. THP-1Blue cells obtained from InvivoGen (San Diego, CA, United States) were cultured in RPMI 1640 medium (Mediatech Inc., Herndon, VA, United States) supplemented with 10% (v/v) fetal bovine serum (FBS), 4.5 g/L glucose, 100 μg/ml streptomycin, 100 U/mL penicillin, 100 μg/ml phleomycin (Zeocin), and 10 μg/ml blasticidin S. Human monocyte-macrophage MonoMac-6 cells (Deutsche Sammlung von Mikroorganismen und Zellkulturen GmbH, Braunschweig, Germany) were grown in RPMI 1640 medium supplemented with 10% (v/v) FBS, 10 μg/ml bovine insulin, 100 μg/ml streptomycin, and 100 U/mL penicillin.
Activation of AP-1/NF-κB was measured using an alkaline phosphatase reporter gene assay in THP1-Blue cells. Human monocytic THP-1Blue cells are stably transfected with a secreted embryonic alkaline phosphatase gene that is under the control of a promoter inducible by AP-1/NF-κB. THP-1Blue cells (2 × 10^5 cells/well) were pretreated with test compound or DMSO (1% final concentration) for 30 min, followed by addition of 250 ng/ml LPS (from Escherichia coli K-235; Sigma Chemical Co., St. Louis, MO, United States) for 24 h, and alkaline phosphatase activity was measured in cell supernatants using QUANTI-Blue mix (InvivoGen) with absorbance at 655 nm and compared with positive control samples (LPS). The concentrations of compound that caused 50% inhibition of the AP-1/NF-κB reporter activity (IC50) were calculated.

The next data set has as its target T1, JNK3 (Homo sapiens, UniProt P53779).
T1 construct: purchased Eurofins Pharma Discovery (KINOMEscan platform)
The experiment in a line: KINOMEscan ATP site-dependent binding assay, JNK3. To be noted: for Kd: KINOMEscan, mixture of E/Z isomers, read-out: Binding affinity JNK3 Kd. As to the method:
(§2) Selected compounds were submitted for dissociation constant (Kd) determination using the KINOMEscan platform (Eurofins Pharma Discovery, San Diego, CA, United States), as described previously ([Karaman et al., 2008]). […] Primary screening at fixed concentrations of compounds was performed in duplicate.

Another data set has as its target T2, JNK2 (Homo sapiens, UniProt P45984).
T2 construct: purchased Eurofins Pharma Discovery (KINOMEscan platform)
Kind of data set: KINOMEscan ATP site-dependent binding assay, JNK2. To be noted: mixture of E/Z isomers, read-out: Binding affinity JNK2 Kd. The protocol: as §2

The subject of data set [2] is IL-6 production in MonoMac-6 cells. Kind of data set: LPS-induced IL-6 production in MonoMac-6 cells (ELISA). It is filed as cell-based. To be noted: Homo sapiens, MONO-MAC-6; LPS 250 ng/ml, 24 h. As to the method:
as §1
(§3) Human IL-6 ELISA kit (BD Biosciences, San Jose, CA, United States) was used to confirm the inhibitory effect of selected compounds on IL-6 production. MonoMac-6 cells were plated in 96-well plates at a density of 2 × 10^5 cells/well in culture medium supplemented with 3% (v/v) endotoxin-free FBS. Cells were pretreated with test compound or DMSO (1% final concentration) for 30 min, followed by addition of 250 ng/ml LPS for 24 h. IC50 values for IL-6 production were calculated by plotting the percentage inhibition against the logarithm of inhibitor concentration (at least five points). Multiplex human cytokine ELISA kit from Anogen (Mississauga, ON, Canada) was used to evaluate various cytokines (IL-1α, IL-1β, IL-6, GM-CSF, MCP-1, IFNγ, and TNF) in the supernatants of MonoMac-6 cells.

In another data set the target is T3, JNK1 (Homo sapiens, UniProt P45983).
T3 construct: purchased Eurofins Pharma Discovery (KINOMEscan platform)
The experiment in a line: KINOMEscan ATP site-dependent binding assay, JNK1. As to conditions: mixture of E/Z isomers, read-out: Binding affinity JNK1 Kd. The protocol: as §2

Data set [3] can be described thus: Solubility in DMSO for the binding affinity assay. The format is physicochemical. As to conditions: insufficiently soluble in DMSO for the binding affinity assay. The text has this: TABLE 1 Binding affinity (Kd) of compounds 1a-o and their inhibitory effect on LPS-induced NF-κB/AP-1 transcriptional activity in THP-1Blue cells and IL-6 production in MonoMac-6 cells. | column: Binding affinity / JNK1

Data set [4] deals with c-Jun (Ser63) phosphorylation in MonoMac-6 cells. The experiment in a line: LPS-induced c-Jun (Ser63) phosphorylation, Western blotting. It is filed as cell-based, human. As to conditions: 30 min pretreatment, LPS 250 ng/ml 30 min, phospho-c-Jun/total c-Jun. The protocol:
MonoMac-6 monocytic cells (10^7 cells) were incubated with different concentrations of compound 1j (final DMSO concentration of 0.5%) for 30 min at 37°C and then treated with LPS (250 ng/ml) or buffer for another 30 min at 37°C. Cells were washed twice with ice-cold phosphate buffer solution (pH 7.4), and cell lysates were prepared using lysis buffer (Cell Signaling Technology, Danvers, MA, United States). Cell lysates were separated on ExpressPlus 10% PAGE Gels (GenScript, Piscataway, NJ, United States) using TRIS-MOPS running buffer and transferred to nitrocellulose membranes. The blots were blocked overnight at 4°C in TRIS buffer (pH 7.4) + 0.1% Tween-20 (TBST) + 2.5% bovine serum albumin and probed with antibodies against phospho-c-Jun (Ser63) (Cell Signaling Technology), followed by horseradish peroxidase-conjugated secondary antibody (Cell Signaling Technology), and the blots were developed using Super-Signal West Femto chemiluminescent substrate (Thermo Fisher Scientific) and visualized with a FluorChem FC2 imaging system (Alpha Innotech Corporation, San Leandro, CA, United States). For measurement of total c-Jun signal, we stripped and reprobed the same Western blots that were used for phospho-c-Jun blots. […] Quantitation of the luminescent signals were performed using AlphaView software.
For orientation: A western blot detects proteins with antibodies after separation by electrophoresis.

Data set [5] concerns proinflammatory cytokine production in MonoMac-6 cells. Kind of data set: Multiplex human cytokine ELISA, LPS-stimulated MonoMac-6 cells. To be noted: 10 μM, LPS 250 ng/ml 24 h. The format is cell-based. The protocol:
as §3

Data set [6] has as its system IL-6 production in MonoMac-6 cells. Details: method as in Schepetkin et al., 2019. To be noted: LPS-stimulated; ref Schepetkin et al., 2019; cited from earlier work.
The subject of data set [7] is NF-κB/AP-1 transcriptional activity in THP-1Blue cells. Set-up: method as in Schepetkin et al., 2019. To be noted: LPS-stimulated; ref Schepetkin et al., 2019; cited from earlier work.

T2 sequence (P45984 whole entry): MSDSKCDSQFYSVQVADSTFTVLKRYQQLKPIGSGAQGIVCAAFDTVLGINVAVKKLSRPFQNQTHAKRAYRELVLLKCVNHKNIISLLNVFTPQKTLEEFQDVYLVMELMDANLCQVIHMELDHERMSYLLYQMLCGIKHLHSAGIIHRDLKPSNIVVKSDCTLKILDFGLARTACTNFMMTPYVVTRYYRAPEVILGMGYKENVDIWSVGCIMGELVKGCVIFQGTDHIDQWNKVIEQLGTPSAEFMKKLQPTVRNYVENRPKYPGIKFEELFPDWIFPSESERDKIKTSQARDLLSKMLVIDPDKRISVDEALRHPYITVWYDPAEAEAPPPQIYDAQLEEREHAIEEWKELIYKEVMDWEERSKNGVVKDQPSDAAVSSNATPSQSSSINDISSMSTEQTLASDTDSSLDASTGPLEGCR
T1 sequence (P53779 whole entry): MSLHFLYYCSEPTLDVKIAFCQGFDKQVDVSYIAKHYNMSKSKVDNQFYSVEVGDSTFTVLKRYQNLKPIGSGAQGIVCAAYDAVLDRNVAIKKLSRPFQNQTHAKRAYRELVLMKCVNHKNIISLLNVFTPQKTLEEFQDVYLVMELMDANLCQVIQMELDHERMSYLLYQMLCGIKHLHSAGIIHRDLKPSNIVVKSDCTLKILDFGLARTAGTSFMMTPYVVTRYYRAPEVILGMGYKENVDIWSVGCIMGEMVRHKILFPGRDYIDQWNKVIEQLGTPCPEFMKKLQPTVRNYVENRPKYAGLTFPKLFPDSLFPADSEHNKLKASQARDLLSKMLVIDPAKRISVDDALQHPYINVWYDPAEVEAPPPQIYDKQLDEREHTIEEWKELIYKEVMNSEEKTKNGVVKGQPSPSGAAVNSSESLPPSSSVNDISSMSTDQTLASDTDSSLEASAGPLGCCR
T3 sequence (P45983 whole entry): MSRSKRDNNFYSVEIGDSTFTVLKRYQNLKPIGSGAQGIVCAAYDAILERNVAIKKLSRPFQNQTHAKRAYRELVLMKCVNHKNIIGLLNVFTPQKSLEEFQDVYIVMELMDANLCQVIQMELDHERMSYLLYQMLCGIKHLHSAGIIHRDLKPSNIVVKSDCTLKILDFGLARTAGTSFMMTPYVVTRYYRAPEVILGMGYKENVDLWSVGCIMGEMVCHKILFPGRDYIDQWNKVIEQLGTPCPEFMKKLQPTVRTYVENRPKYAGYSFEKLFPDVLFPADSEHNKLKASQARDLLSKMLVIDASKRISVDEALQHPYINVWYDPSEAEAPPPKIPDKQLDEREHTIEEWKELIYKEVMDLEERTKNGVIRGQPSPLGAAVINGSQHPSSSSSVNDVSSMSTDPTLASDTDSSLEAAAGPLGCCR

On to `CON=C1c2ccccc2-n2c1nc1ccccc1c2=O` [Compound 1a, 6-(methoxyimino)indolo[2,1-b]quinazolin-12(6H)-one], for which the melting point turned out to be 218 °C. In data set [1], this compound came in with an IC50 of 20.8 ± 5.3 µM. The Kd on JNK3 came to 1.4 ± 0.2 µM. Moreover, at JNK2, the Kd came to 5.6 ± 0.4 µM. The IC50 in data set [2] was 23.5 ± 1.8 µM. Besides, the Kd at JNK1 was determined as 3.1 ± 0.8 µM.

For `CCON=C1c2ccccc2-n2c1nc1ccccc1c2=O` [Compound 1b, 6-(ethoxyimino)indolo[2,1-b]quinazolin-12(6H)-one], the melting point was found to be 117 °C. Moreover, the IC50 in data set [1] was at least 50 µM. For the same compound, the Kd at JNK3 is 1.2 ± 0.4 µM. The equilibrium dissociation constant (Kd) at JNK2 is 5.4 ± 0.6 µM. This compound returned an IC50 in data set [2] of at least 50 µM. Moreover, the Kd on JNK1 amounted to 3.2 ± 1.2 µM.

Consider `C=CCON=C1c2ccccc2-n2c1nc1ccccc1c2=O` [Compound 1c, 6-((allyloxy)imino)indolo[2,1-b]quinazolin-12(6H)-one], for which the melting point amounted to 163 °C. For the same compound, the 50% inhibitory concentration (IC50) in data set [1] is 18.9 ± 1.8 µM. Moreover, at JNK3, the Kd is 0.85 ± 0.01 µM. Besides, the equilibrium dissociation constant (Kd) at JNK2 came out at 4.1 ± 0.1 µM. In [2], this compound returned an IC50 of at least 50 µM. Also, the dissociation constant (Kd) at JNK1 was found to be 3.6 ± 0.7 µM.

`CC(C)(C)ON=C1c2ccccc2-n2c1nc1ccccc1c2=O` [Compound 1d, 6-(tert-butoxyimino)indolo[2,1-b]quinazolin-12(6H)-one] gave a melting point of 229 °C. This compound gave an IC50 in data set [1] of at least 50 µM. At JNK3, the Kd amounted to 2.3 ± 0.3 µM. Besides, the Kd on JNK2 turned out to be 12 ± 1.4 µM. Moreover, the IC50 in data set [2] was at least 50 µM. Further, on JNK1, the Kd was 9.3 ± 0.5 µM.

Take `N#CCON=C1c2ccccc2-n2c1nc1ccccc1c2=O` [Compound 1e, 2-(((12-oxoindolo[2,1-b]quinazolin-6(12H)-ylidene)amino)oxy)acetonitrile]: the melting point was found to be 224 °C. This compound also yielded an IC50 in [1] of at least 50 µM. At JNK3, the Kd turned out to be 1.5 ± 0.6 µM. Further, on JNK3 (ratio of binding affinities), the “JNK-3 selectivity over JNK-1” value was above 10 fold and the “JNK-3 selectivity over JNK-2” value was above 10 fold. On JNK2, the Kd was 17.5 ± 2.1 µM. The same compound gave an IC50 in data set [2] of at least 50 µM. Moreover, on JNK1, the dissociation constant (Kd) was found to be 19.5 ± 3.5 µM.

`O=c1c2ccccc2nc2n1-c1ccccc1C2=NOCc1ccccc1` [Compound 1f, 6-((benzyloxy)imino)indolo[2,1-b]quinazolin-12(6H)-one] returned a melting point of 206 °C. Further, the IC50 in [1] was at least 50 µM. The Kd at JNK3 was at least 30 µM. Besides, in data set [2], the concentration for half-maximal inhibition (IC50) was at least 50 µM.

For `O=c1c2ccccc2nc2n1-c1ccccc1C2=NOCc1c(F)c(F)c(F)c(F)c1F` [Compound 1g, 6-(((pentafluorophenyl)methoxy)imino)indolo[2,1-b]quinazolin-12(6H)-one], the melting point amounted to 183 °C. The same compound displayed an IC50 in [1] of at least 50 µM. The equilibrium dissociation constant (Kd) at JNK3 was at least 30 µM. The compound further gave an IC50 in data set [2] of at least 50 µM.

On to `O=c1c2ccccc2nc2n1-c1ccccc1C2=NOCc1ccc([N+](=O)[O-])cc1` [Compound 1h, 6-(((4-nitrobenzyl)oxy)imino)indolo[2,1-b]quinazolin-12(6H)-one], for which the melting point turned out to be 219 °C. In data set [1], this compound had an IC50 of at least 50 µM. In [2], the IC50 was at least 50 µM. In data set [3], the Solubility entry is listed as “Poor solubility ^b”.

For the compound `O=c1c2ccccc2nc2n1-c1ccccc1C2=NOCc1ccccn1` [Compound 1i, 6-((pyridin-2-ylmethoxy)imino)indolo[2,1-b]quinazolin-12(6H)-one], the melting point lay in the range of 199 to 200 °C. In data set [1], the concentration for half-maximal inhibition (IC50) was at least 50 µM. Further, the Kd at JNK3 was 1.5 ± 0.1 µM. Further, the Kd on JNK2 turned out to be 3.9 ± 0.4 µM. Also, the IC50 in data set [2] is at least 50 µM. For the same compound, on JNK1, the Kd turned out to be 4 ± 0.9 µM.

For `CC(=O)ON=C1c2ccccc2-n2c1nc1ccccc1c2=O` [Compound 1j, 6-(acetoxyimino)indolo[2,1-b]quinazolin-12(6H)-one], the melting point was 262 °C. The same compound had an IC50 in data set [1] of 0.8 ± 0.2 µM. Moreover, the “Inhibition of LPS-induced c-Jun (S63) phosphorylation” value in data set [4] is “dose-dependent inhibition”. The Kd at JNK3 stood at 0.18 ± 0.04 µM. Further, in data set [5] (vs DMSO-treated control), the “Secretion of GM-CSF” value is listed as “completely inhibited”, the “Secretion of IL-1α” value is “completely inhibited”, the “Secretion of IL-1β” value is recorded as “completely inhibited” and the “Secretion of IL-6” value is “completely inhibited”. Moreover, in data set [5] (vs DMSO-treated control), the “Secretion of MCP-1” value is “completely inhibited” and the “Secretion of TNF” value is given as “completely inhibited”. The “Effect on IFN-γ production” value in data set [5] (low production of this cytokine after LPS) is recorded as “inconclusive”. For the same compound, the Kd on JNK2 stood at 0.49 ± 0.01 µM. For the same compound, in [2], the IC50 stood at 1.7 ± 0.1 µM. Moreover, at JNK1, the dissociation constant Kd is 0.34 ± 0.04 µM.

As to `NN=C1c2ccccc2-n2c1nc1ccccc1c2=O` [Compound 1m, 6-hydrazonoindolo[2,1-b]quinazolin-12(6H)-one], the melting point was > 400 °C (dec.). In addition, the IC50 in data set [1] was at least 50 µM. In addition, the IC50 in data set [2] was at least 50 µM. The Solubility entry in data set [3] is “Poor solubility ^b”.

Consider `O=c1c2ccccc2nc2n1-c1ccccc1C2=NNc1ccccc1` [Compound 1n, 6-(2-phenylhydrazono)indolo[2,1-b]quinazolin-12(6H)-one], for which the melting point came out at 223 °C. This compound yielded an IC50 in data set [1] of at least 50 µM. The compound also displayed an IC50 in data set [2] of at least 50 µM. The Solubility entry in data set [3] is on record as “Poor solubility ^b”.

Turning to `NC(=O)NN=C1c2ccccc2-n2c1nc1ccccc1c2=O` [Compound 1o, 2-(12-oxoindolo[2,1-b]quinazolin-6(12H)-ylidene)hydrazinecarboxamide], the melting point was 266 °C. Further, in data set [1], the midpoint of inhibition, the IC50, lay at 3.3 ± 0.1 µM. The IC50 in data set [2] was found to be 6.6 ± 1.2 µM.

On to `O=c1c2ccccc2nc2n1-c1ccccc1/C2=N\O` [TRYP-Ox], for which the 50% inhibitory concentration (IC50) is 3.2 ± 1.2 µM in data set [6] and 3.8 ± 1.1 µM in data set [7].

These data come from article PMC9510750, “Design, synthesis and biological evaluation of novel O-substituted tryptanthrin oxime derivatives as c-Jun N-terminal kinase inhibitors” (Frontiers in Pharmacology, 2022).
